Experimental data reported in patent US20100130459A1, “NEUROPROTECTIVE 7-BETA-HYDROXYSTEROIDS” (Hunter-Fleming Limited, priority 2000, published 2010).

What was measured:
[1] = test system: Organotypic hippocampal slice cultures (CA1 cell layer); test: Hypoxic neuronal damage in organotypic hippocampal slice cultures (PI fluorescence in CA1); type: cell-based, Wistar rat
Experimental: Organotypic hippocampal slice cultures were prepared using the basic method of Pringle et al (1996, 1997) modified as follows:
Wistar rat pups (8-11 days old) were decapitated and the hippocampus rapidly dissected into ice-cold Gey's balanced salt solution supplemented with 4.5 mg/ml glucose. Slices were separated and plated onto Millicell CM culture inserts (4 per well) and maintained at 37′C./5% CO2 for 14 days. Maintenance medium consisted of 25% heat-inactivated horse serum, 25% Hank's balanced salt solution (HBSS) and 50% minimum essential medium with added Earle's salts (MEM) supplemented with 1 mM glutamine and 4.5 mg/ml glucose. Medium was changed every 3-4 days.
Experimental hypoxia was performed as described previously (Pringle e al., 1996; 1997). Briefly, cultures were transferred to serum free medium (SFM—75% MEM, 25% HBSS supplemented with 1 mM glutamine and 4.5 mg/ml glucose) containing 5 μg/ml of the fluorescent exclusion dye propidium iodide (PI). Cultures were allowed to equilibrate in SFM for 60 minutes prior to imaging. PI fluorescence was detected using a Leica inverted microscope fitted with a rhodamine filter set. Any cultures in which PI fluorescence was detected at this stage were excluded from further study. Hypoxia was induced by transferring cultures to SEM (+PI) which had been saturated with 95% N2/5% CO2. Culture plates (without lids) were then sealed into an airtight chamber in which the atmosphere was saturated with 95% N2/5% CO2 by continuously blowing through gas at 10 L/min for ten minutes before being sealed and placed in the incubator for 170 mins (total time of hypoxia was therefore 180 mins). At the end of the hypoxic period cultures were returned to normoxic SFM containing PI and placed back in the incubator for 24 hours.
Neuronal damage was assessed as described previously (Pringle et al., 1996; 1997) using either NIH Image 1.60 running on an Apple IIsi computer or OpenLab 2.1 (Improvision) running on a Macintosh G4/400. Images were captured using a monochrome camera and saved onto optical disk for offline analysis. Light transmission images were captured prior to the addition of drugs, and PI fluorescence images recorded at the end of the 24-hour post-hypoxia recovery period. The area of the CA1 cell layer was determined from the transmission image. The area of PI fluorescence in CA1 was measured using the density slice function within NIH Image or OpenLab, and neuronal damage expressed as the percentage of the CA1 in which PI fluorescence was detected above background.
Steroid compounds were prepared by making an initial 1 mg/ml solution in ethanol and further diluting down in SFM. Compounds were added to the cultures for 45 minutes prior to hypoxia, during the hypoxic episode and during the post-hypoxic recovery period. Control experiments consisted of cultures treated with vehicle alone.

[2] = test system: hippocampal CA1 pyramidal cells; test: Global cerebral ischemia in rats (4 vessel occlusion), surviving CA1 neurons by Nissl staining; type: in vivo, male Wistar rats
Experimental: Cerebral ischemia was induced by four-vessel-occlusion (4VO) in male Wistar rats (250-280 g). Both vertebral arteries were occluded by electrocauterization in pentobarbital anesthesia (60 mg/kg i.p.). The animals were allowed to recover for 24 hours with free access to water but not food. The next day the carotid arteries were exposed under 2% halothane in 30% oxygen/70% nitrous oxide anesthesia and were occluded for 10 minutes using microvascular claps. Subsequently, both clamps were removed and both arteries were inspected for immediate reperfusion. During the operation and the following 3 hours normothermia of the animals (37.5±0.5° C.) was maintained by using a thermostatically controlled heating blanket connected to a rectal thermometer. For control, in sham-operated animals both vertebral arteries were cauterized in pentobarbital anesthesia and both common carotid arteries were exposed but not clamped under 2% halothane in 30% oxygen/70% nitrous oxide anesthesia the following day. The wound was treated with lidocaine gel and then sutured. The animals were kept under a heating lamp at 30° C. environmental temperature until they regained consciousness.
Seven groups of animals were investigated: • 1. (n=8) steroid compound, 7β-OH EPIA (0.1 mg/kg, i. v. via tail vein, three injections: 15 minutes prior to the induction of ischemia, during ischemia and 5 minutes after reperfusion); • 2. (n=8) steroid compound, 7β-OH EPIA (0.3 mg/kg, i. v. three injections as described in 1.); • 3. (n=8) steroid compound, 7β-OH EPIA (1 mg/kg, i. v., three injections as described in 1.); • 4. (n=8) NBQX (disodium salt, because more water soluble) as reference substance and positive control (TOCRIS, Germany, 30 mg/kg, i. p., three injections as described in 1.); • 5. (n=8) received vehicle (0.9% NaCl, containing 100 μl Ethanol) three injections as described in 1.); • 6. (n=8) ischemia alone; • 7. (n=8) sham operated controls.
The substances were dissolved in 100 μl Ethanol and finally diluted with 0.9% NaCl.
After a survival time of 7 days after ischemia, all animals were perfusion fixed transcardially with 4% paraformaldehyde. The brains were then removed carefully and postfixed in the same fixative for 2 hours. After cryoprotection in 30% sucrose, the brains were rapidly frozen in isopentane and stored at −80° C. Twenty-micrometer cryostat sections comprising the hippocampal formation were Niss1 stained with toluidine blue or NeuroTrace fluorescence.
The severity of neuronal damage in the hippocampal CA1 region after ischemia was evaluated by the number of surviving neurons using Niss1 staining. The mean number of morphologically intact neurons per 400 μm length was calculated in CA1 region for each group. Cell counting was performed in 3-5 serial sections per animal and 6 times 400 μm CA1 area per section using a light microscope equipped with a 20× objective. The data were statistically analyzed by paired Student's t-test. Data were presented as mean±SEM.

[3] = Experiment 1, 100 nM pre-, during and post-hypoxia
[4] = Experiment 1, 100 nM present pre-, during and post-hypoxia, control hypoxia 25.5 ± 6.4
[5] = 30 mg/kg, three injections, 10 min global ischemia, 7 days survival

For `C[C@]12CC[C@H](O)C[C@@H]1C[C@@H](O)[C@@H]1[C@@H]2CC[C@]2(C)C(=O)CC[C@@H]12` [Example 7αOH-EPIA, 7α-Hydroxy-EPIA], the “Reduction of hypoxic damage in CA1 (in words)” value [1, 3] was “significantly reduced” and the “% Damage in CA1” value [1, 4] was 4.0 ± 2.9 %.
For `C[C@]12CC[C@H](O)CC1=C[C@H](O)[C@@H]1[C@@H]2CC[C@]2(C)C(=O)CC[C@@H]12` [Example 7βOH-DHEA, 7β-hydroxy-DHEA], the “Reduction in neuronal damage (in words)” value ([1]; Experiment 3, 100 nM pre-, during and post-hypoxia) was “large, highly significant, reduction in neuronal damage” and the “% Damage in CA1” value ([1]; Experiment 3, 100 nM pre-, during and post-hypoxia, control hypoxia 29.0 ± 6.2) was 4.2 ± 1.9 %.
For `C[C@]12CC[C@H](O)C[C@@H]1C[C@H](O)[C@@H]1[C@@H]2CC[C@]2(C)C(=O)CC[C@@H]12` [Example 7βOH-EPIA, 7β-hydroxyepiandrosterone], the “Neuroprotective effect (in words, t-test)” value ([2]; 0.1 mg/kg (p=0.01) and 0.3 mg/kg (p=0.0008) i.v.) was “highly significant neuroprotective effect”, the “Neuroprotective effect on CA1 pyramidal cells compared to the sham operated group (FIG. 1C)” value ([2]; 0.1 mg/kg i.v., three injections, 10 min global ischemia, 7 days survival) was 74.8% and the “Neuroprotective effect on CA1 pyramidal cells compared to the sham operated group (FIG. 1C)” value ([2]; 0.3 mg/kg i.v., three injections, 10 min global ischemia, 7 days survival) was 83.9%. The “Neuroprotection of CA1 pyramidal cells (in words)” value ([2]; 1.0 mg/kg i.v., three injections) was “only a tendency to neuroprotection, but the effect was not significant”, the “Behavioral abnormalities of the animals” value ([2]; injected i.v. prior, during and after ischemia, all experiments) was “never observed any behavioral abnormalities” and the “Reduction of hypoxic damage in CA1 (in words)” value [1, 3] was “significantly reduced”. The “% Damage in CA1” value [1, 4] was 9.0 ± 4.7 %, the “Neuroprotection against hypoxia (in words)” value ([1]; Experiment 2, 1 nM) was “activity was lost” and the “% Damage in CA1” value ([1]; Experiment 2, 1 nM, control hypoxia 31.9 ± 4.7) was 20.6 ± 7.2%. For the same molecule, the “Neuroprotection against hypoxia (in words)” value ([1]; Experiment 2, 10 nM and 100 nM) was “significantly neuroprotective”, the “% Damage in CA1” value ([1]; Experiment 2, 10 nM, control hypoxia 31.9 ± 4.7) was 11.9 ± 4.7 % and the “% Damage in CA1” value ([1]; Experiment 2, 100 nM, control hypoxia 31.9 ± 4.7) was 14.3 ± 5.0 %.
`NS(=O)(=O)c1cccc2c1c([N+](=O)[O-])cc1nc(O)c(O)nc12` [NBQX, 2,3-dihydroxy-6-nitro-7-sulfamoyl-benzo(F)quinoxaline, reference compound] was tested, and the “Neuroprotection in CA1 pyramidal cells compared to the ischemia group (in words, t-test)” value ([2]; 30 mg/kg, three injections) was “significant (p=0.03) neuroprotection”, the “Neuroprotection compared to the ischemia alone” value [2, 5] was 47.5% and the “Protective effect compared to the sham operated animals” value [2, 5] was 68.5%.
